# Laboratory results reported in patent US12729377B2, “RNAi agents and compositions for inhibiting expression of angiopoietin-like 3 (ANGPTL3), and methods of use” (Arrowhead Pharmaceuticals, Inc., priority 2017, dated 2026).
# In the oligonucleotide strings, read from the 5' end, every base follows the letter of its sugar. An asterisk marks phosphorothioate; unmarked linkages are phosphodiester. Other units and linkages are bracketed, terminal groups are in braces. A string of capitals states the bases alone. {NAG37} = tridentate N-acetyl-galactosamine targeting ligand, structure (NAG37)s; [invAb] = inverted abasic unit; m = 2'-O-methyl; f = 2'-fluoro
# Tests used:
# [1] = test system: ANGPTL3 gene; assay: Example 11: dose response, serum triglycerides in mice; assay type: in vivo, C57bl/6 mice
# Procedure: (§1) To assess the dose response of ANGPTL3 RNAi agent AD05488, six- to eight-week-old female C57bl/6 mice were used. Pre-dose serum samples were taken at day −1 after a four hour fast. At day 1, each mouse was given a single subcutaneous administration of 200 μl containing the respective mg/kg dose of an ANGPTL3 RNAi agent in D5W (dextrose in 5% water), or control (D5W) with no RNAi agent, according to the dosing groups recited in Table 53:
# (§2) The RNAi agent tested (AD05488) included a modified sequence and an N-acetyl-galactosamine-containing targeting ligand conjugated to the 5′ terminal end of the sense strand. (See Tables 3, 4, and 5 for modified sequences and targeting ligand structures). The injections were performed between the skin and muscle (i.e. subcutaneous injections) into the loose skin over the neck and shoulder area. Four (4) mice in each group were tested (n=4). Serum was collected on days 8, 15, 22, and 29. Mice were fasted for four hours prior to each collection. ANGPTL3 protein levels in serum were measured by ELISA assay (R&D Systems), according to the manufacturer's recommendations. Triglycerides, total cholesterol, high-density lipoprotein (HDL), and low-density lipoprotein (LDL) in serum were measured on a Cobas® Integra 400 (Roche Diagnostics), according to the manufacturer's recommendations.
# (§3) The ANGPTL3 protein levels, triglyceride levels, total cholesterol levels, HDL levels, and LDL levels for each animal were normalized. For normalization, the level of ANGPTL3 protein, triglyceride, HDL, and total cholesterol, respectively, for each animal at a time point, was divided by the pre-treatment level of expression in that animal (in this case at day −1) to determine the ratio of expression “normalized to pre-treatment.” Expression at a specific time point was then normalized to the D5W control group by dividing the “normalized to pre-treatment” ratio for an individual animal by the mean “normalized to pretreatment” ratio of all mice in the D5W control group.
# [2] = test system: ANGPTL3 gene; assay: Example 9: serum LDL in cynomolgus monkeys; assay type: in vivo, cynomolgus macaque (Macaca fascicularis); conditions: 2.0 mg/kg single SC injection day 1, cynos, n=3
# Procedure: Additional ANGPTL3 RNAi agents were evaluated in cynomolgus monkeys. On day 1, cynomolgus macaque (Macaca fascicularis) primates (also referred to herein as “cynos”) were administered a single subcutaneous injection of 0.3 mL/kg (approximately 2-3 mL volume, depending on animal mass) containing 2.0 mg/kg of an ANGPTL3 RNAi agent, which included either AD05488, AD05743, AD05775, or AD05841, each formulated in saline. […] ANGPTL3 RNAi agents AD05488, AD05743, and AD05775 included nucleotide sequences designed to target position 304 of the ANGPTL3 gene. ANGPTL3 RNAi agent AD05841 included nucleotide sequences designed to target position 1035 of the ANGPTL3 gene.
# Three (3) cynos in each group were tested (n=3). Blood samples were drawn and serum samples were analyzed on days −14 (predose), −7 (predose), 1 (pre-dose), 8, 15, 22, 29, and 35. Cynos were fasted overnight prior to each collection. ANGPTL3 protein levels in serum were measured by ELISA assay (R&D Systems), according to the manufacturer's recommendations. Triglycerides, total cholesterol, high-density lipoprotein (HDL), and low-density lipoprotein (LDL) in serum were measured on a Cobas® Integra 400 (Roche Diagnostics), according to the manufacturer's recommendations.
# The ANGPTL3 protein levels, triglyceride levels, total cholesterol levels, HDL levels, and LDL levels for each animal were normalized. For normalization, the level of ANGPTL3 protein, triglyceride, HDL, and total cholesterol, respectively, for each animal at a time point, was divided by the average pre-treatment level of expression in that animal (in this case at days −14, −7, and 1) to determine the ratio of expression “normalized to pre-treatment.”
# [3] = test system: ANGPTL3 protein; assay: Example 11: dose response, serum ANGPTL3 protein by ELISA in mice; assay type: in vivo, C57bl/6 mice
# Procedure: as §1, §2, §3
# [4] = 0.05 mg/kg single sc day 1, Day 8
# [5] = 0.05 mg/kg single sc day 1, Day 15
# [6] = 0.05 mg/kg single sc day 1, Day 22
# [7] = 0.05 mg/kg single sc day 1, Day 29
# [8] = 0.1 mg/kg single sc day 1, Day 8
# [9] = 0.1 mg/kg single sc day 1, Day 15
# [10] = 0.1 mg/kg single sc day 1, Day 22
# [11] = 0.1 mg/kg single sc day 1, Day 29
# [12] = 0.5 mg/kg single sc day 1, Day 8
# [13] = 0.5 mg/kg single sc day 1, Day 15
# [14] = 0.5 mg/kg single sc day 1, Day 22
# [15] = 0.5 mg/kg single sc day 1, Day 29
# [16] = 1.0 mg/kg single sc day 1, Day 8
# [17] = 1.0 mg/kg single sc day 1, Day 15
# [18] = 1.0 mg/kg single sc day 1, Day 22
# [19] = 1.0 mg/kg single sc day 1, Day 29
# [20] = 2.5 mg/kg single sc day 1, Day 8
# [21] = 2.5 mg/kg single sc day 1, Day 15
# [22] = 2.5 mg/kg single sc day 1, Day 22
# [23] = 2.5 mg/kg single sc day 1, Day 29
# [24] = 5.0 mg/kg single sc day 1, Day 8
# [25] = 5.0 mg/kg single sc day 1, Day 15
# [26] = 5.0 mg/kg single sc day 1, Day 22
# [27] = 5.0 mg/kg single sc day 1, Day 29
substance,measurement,setting,value
"AD05488: RNAi agent duplex: antisense AM07235-AS, sense AM07234-SS (antisense mU*fA*mC*fUmGfAmUfCmAfAmAfUmAfUmGfUmUfGmAfG*mC; sense {NAG37}*[invAb]*mGmCmUmCmAmAmCmAfUfAfUmUmUmGmAmUmCmAmGmUmA*[invAb])",Avg TG (Triglycerides) Normalized to Pre-Treatment and Control,[1]; [4],1.296
same,Avg TG (Triglycerides) Normalized to Pre-Treatment and Control,[1]; [5],1.274
same,Avg TG (Triglycerides) Normalized to Pre-Treatment and Control,[1]; [6],1.202
same,Avg TG (Triglycerides) Normalized to Pre-Treatment and Control,[1]; [7],1.999
same,Avg TG (Triglycerides) Normalized to Pre-Treatment and Control,[1]; [8],1.116
same,Avg TG (Triglycerides) Normalized to Pre-Treatment and Control,[1]; [9],1.141
same,Avg TG (Triglycerides) Normalized to Pre-Treatment and Control,[1]; [10],1.234
same,Avg TG (Triglycerides) Normalized to Pre-Treatment and Control,[1]; [11],1.798
same,Avg TG (Triglycerides) Normalized to Pre-Treatment and Control,[1]; [12],1.028
same,Avg TG (Triglycerides) Normalized to Pre-Treatment and Control,[1]; [13],1.027
same,Avg TG (Triglycerides) Normalized to Pre-Treatment and Control,[1]; [14],0.864
same,Avg TG (Triglycerides) Normalized to Pre-Treatment and Control,[1]; [15],1.855
same,Avg TG (Triglycerides) Normalized to Pre-Treatment and Control,[1]; [16],0.860
same,Avg TG (Triglycerides) Normalized to Pre-Treatment and Control,[1]; [17],0.755
same,Avg TG (Triglycerides) Normalized to Pre-Treatment and Control,[1]; [18],0.720
same,Avg TG (Triglycerides) Normalized to Pre-Treatment and Control,[1]; [19],1.254
same,Avg TG (Triglycerides) Normalized to Pre-Treatment and Control,[1]; [20],0.623
same,Avg TG (Triglycerides) Normalized to Pre-Treatment and Control,[1]; [21],0.556
same,Avg TG (Triglycerides) Normalized to Pre-Treatment and Control,[1]; [22],0.447
same,Avg TG (Triglycerides) Normalized to Pre-Treatment and Control,[1]; [23],0.772
same,Avg TG (Triglycerides) Normalized to Pre-Treatment and Control,[1]; [24],0.923
same,Avg TG (Triglycerides) Normalized to Pre-Treatment and Control,[1]; [25],0.892
same,Avg TG (Triglycerides) Normalized to Pre-Treatment and Control,[1]; [26],0.781
same,Avg TG (Triglycerides) Normalized to Pre-Treatment and Control,[1]; [27],1.128
same,Average LDL Normalized to Pre-Treatment,[2]; Day 8,0.971
same,Average LDL Normalized to Pre-Treatment,[2]; Day 15,0.913
same,Average LDL Normalized to Pre-Treatment,[2]; Day 22,0.949
same,Average LDL Normalized to Pre-Treatment,[2]; Day 29,0.853
same,Average LDL Normalized to Pre-Treatment,[2]; Day 35,0.845
same,Avg ANGPTL3 Protein Normalized to Pre-Treatment and Control,[3]; [4],0.788
same,Avg ANGPTL3 Protein Normalized to Pre-Treatment and Control,[3]; [5],0.929
same,Avg ANGPTL3 Protein Normalized to Pre-Treatment and Control,[3]; [6],1.106
same,Avg ANGPTL3 Protein Normalized to Pre-Treatment and Control,[3]; [7],0.990
same,Avg ANGPTL3 Protein Normalized to Pre-Treatment and Control,[3]; [8],0.511
same,Avg ANGPTL3 Protein Normalized to Pre-Treatment and Control,[3]; [9],0.757
same,Avg ANGPTL3 Protein Normalized to Pre-Treatment and Control,[3]; [10],0.720
same,Avg ANGPTL3 Protein Normalized to Pre-Treatment and Control,[3]; [11],0.734
same,Avg ANGPTL3 Protein Normalized to Pre-Treatment and Control,[3]; [12],0.207
same,Avg ANGPTL3 Protein Normalized to Pre-Treatment and Control,[3]; [13],0.261
same,Avg ANGPTL3 Protein Normalized to Pre-Treatment and Control,[3]; [14],0.310
same,Avg ANGPTL3 Protein Normalized to Pre-Treatment and Control,[3]; [15],0.349
same,Avg ANGPTL3 Protein Normalized to Pre-Treatment and Control,[3]; [16],0.116
same,Avg ANGPTL3 Protein Normalized to Pre-Treatment and Control,[3]; [17],0.141
same,Avg ANGPTL3 Protein Normalized to Pre-Treatment and Control,[3]; [18],0.171
same,Avg ANGPTL3 Protein Normalized to Pre-Treatment and Control,[3]; [19],0.199
same,Avg ANGPTL3 Protein Normalized to Pre-Treatment and Control,[3]; [20],0.064
same,Avg ANGPTL3 Protein Normalized to Pre-Treatment and Control,[3]; [21],0.047
same,Avg ANGPTL3 Protein Normalized to Pre-Treatment and Control,[3]; [22],0.056
same,Avg ANGPTL3 Protein Normalized to Pre-Treatment and Control,[3]; [23],0.063
same,Avg ANGPTL3 Protein Normalized to Pre-Treatment and Control,[3]; [24],0.018
same,Avg ANGPTL3 Protein Normalized to Pre-Treatment and Control,[3]; [25],0.019
same,Avg ANGPTL3 Protein Normalized to Pre-Treatment and Control,[3]; [26],0.029
same,Avg ANGPTL3 Protein Normalized to Pre-Treatment and Control,[3]; [27],0.031
same,reduction in ANGPTL3 protein,"[3]; dose response, single subcutaneous dose, C57bl/6 mice",reduction
